Data from patent US4401430A, “Method of and apparatus for detoxifying mammalian hosts” (priority 1981, dated 1983).
Counter-ions that a name gives are not always drawn. Like-named read-outs stand apart in the source and are kept apart here.

What was measured:
[1] = less than two percent by volume (% v/v); barbiturates (thiopental, secobarbital, pentobarbital), tricyclics (imipramine, chlorpromazine)
Description: (§1) The term "liberating agent" as used herein defines a reagent which when added to a body fluid, increases the ratio of a free soluble chemical to the total content of that chemical in the body fluid. The total content is the aggregate of both the free soluble and bound states of the chemical. More than one physical mechanism can be encountered with the same resultant advantageous partitioning of the target chemical from the bound to the free soluble phase. […] In general, liberating agents as herein defined are useful in body fluids and in vivo.

[2] = Effectiveness as liberating agent for thiopental (general statement); assay type: in vitro ADME; settings: specific drugs such as thiopental
Description: as §1

[3] = Free drug concentration of thiopental in fresh human plasma with ethanol (thin layer chromatography); assay type: in vitro ADME; settings: ethanol 0 to 1.0% v/v, room temperature
Description: Thiopental was added to fresh human plasma at room temperature and allowed to equilibrate. Thin layer chromatography, used as an indicator of free drug concentration, was compared to thiopental calibrated plates. Ethanol concentrations of 0, 0.1, 0.2, 0.3, 0.4, 0.5, 0.6, 0.7, 0.8 and 1.0% v/v were tested. A maximum free drug concentration occurred at and above 0.6% v/v.

[4] = Thiopental in fresh human plasma with ethanol, equilibrated with coated activated charcoal (uv relative absorbance); assay type: in vitro ADME
Description: Thiopental was added to fresh human plasma at room temperature and allowed to equilibrate. Relative absorbances, proportional to free drug concentration, were measured spectrophotometrically (uv). Ethanol concentrations of 0, 0.4, 0.7, 1.0, and 1.4% v/v were tested. Drug/plasma and drug/plasma/ethanol solutions were equilibrated with coated activated charcoal.

[5] = system: human albumin; assay: Free thiopental in human albumin solution with sodium lauryl sulfate (differential solution pH change); assay type: in vitro ADME; settings: sodium lauryl sulfate 0, 2, 4, 6, 8, and 10 mg/ml; room temperature
Description: Thiopental was added to a human albumin solution at room temperature and allowed to equilibrate. Differential solution pH changes, related to free drug concentration, were measured.

[6] = system: human albumin
Description: Imipramine HCl, an antidepressant, was added to a human albumin solution at room temperature and allowed to equilibrate. Differential solution pH changes, related to free drug concentration, were measured. Ethanol concentrations of 0, 0.2, 0.4, 0.6, 0.8 and 1.0% v/v were tested.

[7] = system: human albumin; assay: Free chlorpromazine in human albumin solution with ethanol (differential solution pH change); assay type: in vitro ADME; settings: ethanol 0 to 1.0% v/v; room temperature
Description: Chlorpromazine HCl, a tranquilizer, was added to a human albumin solution at room temperature and allowed to equilibrate. Differential solution pH changes, related to free drug concentration, were measured.

[8] = Effectiveness as liberating agent for bilirubin (general statement); assay type: in vitro ADME
Description: as §1

CCO [ethanol]
effectiveness as liberating agent [1]: effective

CCCCCCCCCCCC(=O)O [lauric acid]
effectiveness as liberating agent [2]: effective

CCCC(C)C1(CC)C(=O)NC(=S)NC1=O (centres unmarked) [Thiopental]
ethanol concentration at and above which maximum free drug concentration occurred [3]: ≥ 0.6 % v/v
adsorption of the drug by charcoal ([4]; 0 to 1.4% v/v ethanol): significant increased adsorption of the drug by charcoal
change in relative absorbance ([4]; from 0 to 1.4% v/v ethanol): 13%
differential solution pH change [5]: continuous pH change
free soluble drug concentration [5]: increasing free soluble drug concentrations

CCCCCCCCCCCCS(=O)(=O)[O-].[Na+] [sodium lauryl sulfonate]
effectiveness as liberating agent [2]: effective

CN(C)CCCN1c2ccccc2CCc2ccccc21 [Imipramine HCl]
free soluble drug concentration (differential pH responses) [6]: significant increases in the free soluble drug concentration

CN(C)CCCN1c2ccccc2Sc2ccc(Cl)cc21 [Chlorpromazine HCl]
free soluble concentration of the drug [7]: increases in free soluble concentration

CC(=O)Oc1ccccc1C(=O)O [acetylsalicylic acid]
specificity as liberating agent [8]: specific for bilirubin
